Measurements taken from the CheMixHub ionic liquid set.

Test: xn = mol fraction of the nth substance listed

CCCCCC[n+]1ccn(C)c1.F[B-](F)(F)F + CCCC[n+]1ccn(C)c1.F[B-](F)(F)F
101 kPa
Details | viscosity [mPa·s]
298.15 K, x2 = 0.103 | 195.1
298.15 K, x2 = 0.8917 | 115.3
299.15 K, x2 = 0.103 | 184.2
299.15 K, x2 = 0.809 | 115.7
301.15 K, x2 = 0.809 | 104.4
301.15 K, x2 = 0.8917 | 98.6
302.15 K, x2 = 0.3602 | 132.9
302.15 K, x2 = 0.555 | 115.9
302.15 K, x2 = 0.8917 | 93.9
303.15 K, x2 = 0.3602 | 126.2
303.15 K, x2 = 0.555 | 110
303.15 K, x2 = 0.809 | 94.5
303.15 K, x2 = 0.8917 | 89.3
304.15 K, x2 = 0.103 | 139.2
304.15 K, x2 = 0.5047 | 110
305.15 K, x2 = 0.3602 | 113.5
305.15 K, x2 = 0.4383 | 107.7
305.15 K, x2 = 0.598 | 98.5
305.15 K, x2 = 0.809 | 85.6
307.15 K, x2 = 0.054 | 123.9
308.15 K, x2 = 0.103 | 113
308.15 K, x2 = 0.3602 | 97.3
308.15 K, x2 = 0.4383 | 92.8

COP(=O)([O-])OC.Cn1cc[n+](C)c1 + CN(CCO)CCO + O
Details | viscosity [mPa·s]
343.15 K, x2 = 0.4346, x3 = 0.3656 | 10.65

CCCCCC[n+]1ccn(C)c1.F[B-](F)(F)F + CC(C)O + CCCO
viscosity [mPa·s], 101 kPa
Details | 293.15 K | 303.15 K | 313.15 K
x2 = 0.0547, x3 = 0.092 | 153.8 | 92 | –
x2 = 0.0978, x3 = 0.4041 | 31.47 | 21.38 | 15.28
x2 = 0.1003, x3 = 0.7991 | 4.92 | 3.33 | 2.35
x2 = 0.1006, x3 = 0.6013 | 13.2 | 9.16 | 6.69
x2 = 0.1012, x3 = 0.4996 | 20.14 | 13.93 | 10.1
x2 = 0.1014, x3 = 0.7009 | 8.3 | 5.74 | 4.16
x2 = 0.1116, x3 = 0.2875 | 49.62 | 32.6 | 22.59
x2 = 0.1293, x3 = 0.1504 | 85.1 | 53.44 | –
x2 = 0.1973, x3 = 0.1121 | 75.21 | 48.39 | 32.33
x2 = 0.1985, x3 = 0.4006 | 20.51 | 14.2 | 10.17
x2 = 0.1992, x3 = 0.3012 | 32.59 | 21.43 | 15.29
x2 = 0.2003, x3 = 0.2005 | 49.41 | 32.39 | 22.5
x2 = 0.2003, x3 = 0.4992 | 13.3 | 9.31 | 6.79
x2 = 0.2012, x3 = 0.6984 | 5 | 3.35 | 2.37
x2 = 0.2977, x3 = 0.1042 | 50.06 | 32.73 | 22.7
x2 = 0.2999, x3 = 0.4989 | 8.8 | 6.05 | 4.35
x2 = 0.3037, x3 = 0.4006 | 13.28 | 9.19 | 6.68
x2 = 0.3046, x3 = 0.5961 | 5.05 | 3.39 | 2.36
x2 = 0.3058, x3 = 0.3005 | 20.27 | 13.93 | 10.1
x2 = 0.3977, x3 = 0.2999 | 13.8 | 9.55 | 6.92
x2 = 0.3985, x3 = 0.104 | 31.6 | 21.33 | 15.15
x2 = 0.3987, x3 = 0.3005 | 13.61 | 9.43 | 6.88
x2 = 0.3989, x3 = 0.3998 | 8.77 | 6.02 | 4.33
x2 = 0.3989, x3 = 0.5015 | 5.18 | 3.4 | 2.38
x2 = 0.4002, x3 = 0.1968 | 21.12 | 14.53 | 10.38
x2 = 0.4992, x3 = 0.4006 | 5.21 | 3.47 | 2.4
x2 = 0.5004, x3 = 0.0998 | 20.98 | 14.38 | 10.33
x2 = 0.5013, x3 = 0.3019 | 8.68 | 5.91 | 4.23
x2 = 0.5734, x3 = 0.2335 | 8.61 | 5.85 | 4.17
x2 = 0.6, x3 = 0.0992 | 13.73 | 9.47 | 6.84
x2 = 0.6001, x3 = 0.3004 | 5.39 | 3.43 | 2.38
x2 = 0.6942, x3 = 0.1049 | 8.82 | 5.98 | 4.27
x2 = 0.698, x3 = 0.2007 | 5.44 | 3.54 | 2.45
x2 = 0.7991, x3 = 0.101 | 5.41 | 3.47 | 2.37
